Reference: ChEMBL document CHEMBL5338789, “Structure-Based Development of Isoform-Selective Inhibitors of Casein Kinase 1ε vs Casein Kinase 1δ” (J Med Chem, 2023)
pEC50, pIC50: −log10 of the molar value. The source made the active and inactive calls. No cut-off for these calls is given here.

Experiments:
[1] = target: T1, Casein kinase I isoform delta (Homo sapiens, UniProt P48730); assay: Inhibition of CK1delta (unknown origin) using Light-TopoIla(Thr1342) peptide as substrate incubated for 10 mins in presence of ATP by TR-FRET assay
Target sequence in this assay (P48730 whole entry, canonical isoform): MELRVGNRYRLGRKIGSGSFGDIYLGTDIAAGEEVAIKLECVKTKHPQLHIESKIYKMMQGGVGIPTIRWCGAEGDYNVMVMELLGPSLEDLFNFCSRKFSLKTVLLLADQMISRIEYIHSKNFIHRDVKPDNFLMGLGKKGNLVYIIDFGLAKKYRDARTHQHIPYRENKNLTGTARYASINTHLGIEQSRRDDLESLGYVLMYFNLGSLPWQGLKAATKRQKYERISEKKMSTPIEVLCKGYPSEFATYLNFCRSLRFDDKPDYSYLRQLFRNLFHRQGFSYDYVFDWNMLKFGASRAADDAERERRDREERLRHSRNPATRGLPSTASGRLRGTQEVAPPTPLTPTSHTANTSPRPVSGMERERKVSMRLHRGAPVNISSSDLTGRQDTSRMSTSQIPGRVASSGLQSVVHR

[2] = target: T1, Casein kinase I isoform delta; assay: Inhibition of N-terminal His-tagged CK1delta (unknown origin) expressed in Escherichia coli using Light-TopoIla(Thr1342) peptide as substrate at 10 uM incubated for 10 mins in presence of ATP by TR-FRET assay
Target sequence in this assay (P48730 whole entry, looked up, canonical isoform): as the sequence (P48730 whole entry, canonical isoform) above

[3] = target: T1, Casein kinase I isoform delta; assay: Inhibition of CK1delta (unknown origin)
Target sequence in this assay (P48730 whole entry, canonical isoform): as above

[4] = target: Casein kinase I isoform epsilon (Homo sapiens, UniProt P49674); assay: Inhibition of CK1epsilon (unknown origin)
[5] = system: T-24; assay: Antiproliferative activity against human T24 cells assessed as reduction in cell proliferation incubated for 72 hrs by Cell Titer Glo assay; assay type: functional, cell-based; settings: T-24, 72 h
[6] = system: 5637; assay: Antiproliferative activity against human 5637 cells assessed as reduction in cell proliferation incubated for 72 hrs by Cell Titer Glo assay; assay type: functional, cell-based; settings: Homo sapiens, 5637, 72 h
[7] = system: UMUC3; assay: Antiproliferative activity against human UMUC3 cells assessed as reduction in cell proliferation incubated for 72 hrs by Cell Titer Glo assay; assay type: functional, cell-based; settings: UMUC3, 72 h
[8] = system: U2OS; assay: Antiproliferative activity against human U2OS cells assessed as reduction in cell proliferation incubated for 72 hrs by Cell Titer Glo assay; assay type: functional, cell-based

Sequence of Casein kinase I isoform epsilon (P49674 whole entry, canonical isoform): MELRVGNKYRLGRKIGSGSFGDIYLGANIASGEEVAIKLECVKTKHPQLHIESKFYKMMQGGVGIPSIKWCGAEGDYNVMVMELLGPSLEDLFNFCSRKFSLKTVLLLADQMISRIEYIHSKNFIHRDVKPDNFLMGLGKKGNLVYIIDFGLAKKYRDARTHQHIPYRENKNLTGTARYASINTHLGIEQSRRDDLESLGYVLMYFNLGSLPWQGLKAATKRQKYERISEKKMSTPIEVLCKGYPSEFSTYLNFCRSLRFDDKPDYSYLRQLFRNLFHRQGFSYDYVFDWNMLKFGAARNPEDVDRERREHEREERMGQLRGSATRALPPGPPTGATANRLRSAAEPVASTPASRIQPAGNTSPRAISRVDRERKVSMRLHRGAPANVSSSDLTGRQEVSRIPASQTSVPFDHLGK

For `Fc1cc(F)cc(CCn2cnc3c(NCc4nc5c(F)c(F)ccc5[nH]4)nc(N4CCOCC4)nc32)c1`, the pIC50 [1] was < 5.00.
With `N#Cc1ccc(CCn2cnc3c(NCc4nc5c(F)c(F)ccc5[nH]4)nc(N4CCOCC4)nc32)cc1` the pIC50 [1] was < 5.00.
For `Fc1ccc2[nH]c(CNc3nc(N4CCOCC4)nc4c3ncn4-c3ccc4ncsc4c3)nc2c1F`, the pIC50 [1] was < 5.00.
In the case of `CC(C)Oc1ccc(-n2cnc3c(NCc4nc5c(F)c(F)ccc5[nH]4)nc(N4CCOCC4)nc32)cc1`, the pIC50 [1] was < 5.00 and the inhibition [2] was “inactive”.
For `O=C(Nc1nc2cc(Cl)c(F)cc2[nH]1)c1coc(NC(=O)c2ccccc2OC(F)(F)F)n1`, the pIC50 [3] was 7.38 and the pIC50 [4] was 7.48.
In the case of `COc1ccc(-n2cnc3c(NCc4nc5c(F)c(F)ccc5[nH]4)nc(N4CCOCC4)nc32)cc1`, the pEC50 [5] was 7.02, the pEC50 [6] was 6.97 and the pEC50 [7] was 5.24. It also gave a pEC50 [8] of 6.79.
In the case of `Fc1ccc2[nH]c(CNc3nc(N4CCOCC4)nc4c3ncn4CCc3cccc(Cl)c3)nc2c1F`, the pIC50 [1] was < 5.00 and the inhibition [2] was “inactive”.
For `Fc1ccc2[nH]c(CNc3nc(N4CCOCC4)nc4c3ncn4CCc3ccc(C(F)(F)F)cc3)nc2c1F`, the pIC50 [1] was < 5.00 and the inhibition [2] was “inactive”.
`CCOc1ccc(-n2cnc3c(NCc4nc5c(F)c(F)ccc5[nH]4)nc(N4CCOCC4)nc32)cc1` was tested, and the pIC50 [1] was < 5.00.
For `Fc1ccc2[nH]c(CNc3nc(N4CCOCC4)nc4c3ncn4-c3ccc4c(c3)OCCO4)nc2c1F`, the pIC50 [1] was < 5.00.
`Fc1ccc2[nH]c(CNc3nc(N4CCOCC4)nc4c3ncn4CCc3cccc(Br)c3)nc2c1F` was tested, and the pIC50 [1] was < 5.00.
With `Fc1ccc2[nH]c(CNc3nc(N4CCOCC4)nc4c3ncn4-c3ccc4ccccc4c3)nc2c1F` the pIC50 [1] was < 5.00, the pEC50 [5] was 6.58 and the pEC50 [6] was 6.50. For the same compound, the pEC50 [7] was 6.27 and the pEC50 [8] was 6.43.
In the case of `Fc1ccc2[nH]c(CNc3nc(N4CCOCC4)nc4c3ncn4Cc3ccc4ccccc4c3)nc2c1F`, the pIC50 [1] was < 5.00.
In the case of `Fc1ccc2[nH]c(CNc3nc(N4CCOCC4)nc4c3ncn4Cc3cccc4ccccc34)nc2c1F`, the pIC50 [1] was < 5.00.
In the case of `Fc1ccc2[nH]c(CNc3nc(N4CCOCC4)nc4c3ncn4CCc3cccc(C(F)(F)F)c3)nc2c1F`, the pIC50 [1] was < 5.00.
`Fc1cccc(-n2cnc3c(NCc4nc5c(F)c(F)ccc5[nH]4)nc(N4CCOCC4)nc32)c1` was tested, and the pEC50 [5] was 8.10, the pEC50 [6] was 8.22 and the pEC50 [7] was 7.59. The pEC50 [8] was 8.05.
In the case of `Fc1cccc(CCn2cnc3c(NCc4nc5c(F)c(F)ccc5[nH]4)nc(N4CCOCC4)nc32)c1`, the pIC50 [1] was < 5.00.
In the case of `Fc1cccc(Cn2cnc3c(NCc4nc5c(F)c(F)ccc5[nH]4)nc(N4CCOCC4)nc32)c1`, the pIC50 [1] was < 5.00.
